Results from patent publication EP2787958B1, “CHELIDONIUM MAJUS EXTRACTS AND THEIR USE IN THE TREATMENT OF SKIN DISORDERS AND PROMOTION OF SKIN REGENERATION” (priority 2011, dated 2013).
Where two headings read alike, the source gives them in different places.

Columns and labels:
HDF cells [1] = experiment: Evaluation of cell proliferation (counting of Sirius Red stained cells in photographs); conditions: for No. of cells from photo ± SD: 24 hours
[2] = test system: collagen produced by HDF cells; experiment: Quantity of collagen produced by the cells (elution of Sirius Red)
[3] = test system: Human dermal fibroblasts (HDF); experiment: Mitochondrial dehydrogenase activity (WST-1 formazan assay) in HDF cells; conditions: for Revitalizing agent: 24 hours; for activity at 1 µM / activity at 10 µM: Homo sapiens, Fibroblast, read-out: % mitochondrial dehydrogenase activity ± SD
Description: Human dermal fibroblasts were used for assay at the 3rd T75 passage.
Mitochondrial dehydrogenase activity was measured in HDF, HEK and HUVEC cells by means of the formazan assay, using the WST-1 kit from Roche Diagnostic in accordance with the supplier's instructions. Briefly: the reagent was added (10 µl per well), the incubation was carried out for a further 2 hours or 4 hours, and, at the end of this time, the absorbance was read for 1 s at a wavelength of 450 nm in a Perkin Elmer Victor 2 Wallac microplate reader.
The activity percentage (% mitochondrial dehydrogenase activity) is defined as: % mitochondrial dehydrogenase activity = ((absorbance of treated cells - absorbance of blank) / (absorbance of control - absorbance of blank)) x 100.
The tests were performed with observations after 18 hours, seeding 8,000 cells per well, and after 42 hours, seeding 2,000 cells per well. Furthermore, in order to better analyze the dose/response curves for dihydroberberine, canadine and stylopine, curves were collected at 11 concentrations by seeding 2,000 cells per well with 46 hours incubation.
Dose/response curves are plotted at 6 concentrations. The tests were performed with observations after 24 hours, seeding 8,000 cells per well.

interleukin 1β (IL-1β) = experiment: Inflammatory cytokines in cell supernatant (Mosaic ELISA microarray): IL-1β; format: cell-based, Human; conditions: for IL-1β ng/(ml* No. of cells from photo) ± SD: 24 hours
Description: (§1) The inflammatory cytokines, CD40 ligand (CD40L), interferon γ (INF-γ), interleukin 1α (IL-1α), interleukin 1β (IL-1β), interleukin 6 (IL-6), interleukin 8 (IL-8), interleukin 17 (IL-17) and tumour necrosis factor α (TNF-α) were determined qualitatively and quantitatively. Each measurement was performed in duplicate using a Mosaic™ ELISA protein microarray assay system from R&D System in accordance with the supplier's instructions. Furthermore, with the aim of obtaining a correlation model between light signal intensity and cytokine concentration, a calibration curve using 6 concentrations was performed for each of them. Analysis of the data was performed using the dedicated Q-View™ Imager software package from Quansys Biosciences

interleukin 6 (IL-6) = experiment: Inflammatory cytokines in cell supernatant (Mosaic ELISA microarray): IL-6; format: cell-based, Human; conditions: for IL-6 ng/(ml* No. of cells from photo) ± SD: 24 hours
Description: as §1

HDF cells [4] = experiment: Summary of uses and toxic effects deduced from the cell assays (Table 1); format: cell-based, Human; conditions: for Anti-fibrotic (prevention of scar formation, also from acne) / Cytoprotective (antioxidant, anti-inflammatory and anti-ageing; useful also in the treatment of acne) / Cytotoxic / Irritant / Wound-healing: 24 hours
Description: Antiradical (skin protective): this is deduced from the free radical scavenger effects.
Revitalizing: this is deduced from the increased mitochondrial dehydrogenase effect.
Cytoprotective, with regard to oxidative damage (antioxidant, anti-inflammatory and anti-ageing): this is deduced from antagonising the stimulation of IL-1β and/or IL-6 induced by 100 µM H2O2 and from the absence of changes in cell morphology similar to the ones due to cell senescence.
Wound healing: this is deduced from the effect of inhibiting the production of IL-1β and by the effect of stimulating cell proliferation under standard growth conditions.
Cytotoxicity: this is deduced from the effect of reducing mitochondrial dehydrogenase activity or from the presence of morphologies characteristic of cell senescence.
Irritation: this is deduced from the effect of increased production of IL-6 and/or IL-1β under standard growth conditions.
Said uses in the fields of medicine and cosmetics or the toxic effects of the substances of the invention at a given dosage, for 24 hours, are summarized in Table 1 below.

[5] = Anti-radical activity (decay of the DPPH radical); format: biochemical; conditions: for Anti-radical (skin protective): 24 hours
Description: With regard to assays aimed at evaluating anti-radical activity, a chemical test was used where the decay of the diphenylpicrylhydrazyl (DPPH) radical is assessed in the absence or in the presence of the test substances. Indeed, the DPPH radical is used to test the ability of substances to act as free radical scavengers. DPPH in solution has a purple colour with a maximum absorbance peak at 517 nm which changes to yellow-colourless when this radical extracts a hydrogen atom from a radical scavenger to give rise to the reduced form DPPH-H. The assay has been conducted in quadruplicate in 96 well microplates (SARSTEDT Tissue Culture Plate 96-well flat bottom cell+). 50 µl of an ethanol solution of the test substance at 2X concentration and then 50 µl of a 200 µM solution of DPPH (MW 168,18, Aldrich 2,2-di(4-tert-octylphenyl)-1-picrylhydrazyl, free radical Lot# MKBF7574V Cat N° 257621-100 mg) have been added to each well of the microplate. A positive control consisting of 0.1 mM vitamin C and a negative control consisting of ethanol alone were included in each microplate. After 30 minutes from the addition of DPPH, photographs of the plates were taken (Canon PowerShot A610 5.0 Mpixels) and read spectrophotometrically at 530 nm.
Based on the analysis of the results reported in Table 9, some substances were selected for further characterisation of their anti-radical activity. For the selected substances, dose-activity curves were obtained and the IC50 value were computed using a non-linear regression model with the Hill equation at variable slope. Such substances had been selected due to both their anti-radical potential and the easiness of their isolation/production. The selection of substances was made in view of cosmetics applications. Moreover their activity on human dermal fibroblasts (HDF) is expected to be useful also for the development of dermatological medications. The selected substances are discussed below.

[6] = Dose 1 µm (coptisine: 1 pm [sic])

COc1ccc2c(c[n+](C)c3c4cc5c(cc4ccc23)OCO5)c1OC [chelerythrine]
cell proliferation (effect in words) (HDF cells [1]; 1 µM): tendency to stimulate cell proliferation | No. of cells from photo ± SD (HDF cells [1]; 1 µM, 34 ng/ml TGF-β1): 201±15 | No. of cells from photo ± SD (HDF cells [1]; 1 µM, 100 µM H2O2): 289±14 | No. of cells from photo ± SD (HDF cells [1]; 1 µM, Standard conditions): 229±20 | cell proliferation (effect in words) (HDF cells [1]; 10 µM): marked inhibition of proliferation | No. of cells from photo ± SD (HDF cells [1]; 10 µM, 34 ng/ml TGF-β1): 10±4 | No. of cells from photo ± SD (HDF cells [1]; 10 µM, 100 µM H2O2): 10±5 | No. of cells from photo ± SD (HDF cells [1]; 10 µM, Standard conditions): 3±3 | collagen production (effect in words) ([2]; 1 µM, 34 ng/ml TGF-β1): antagonizes the stimulation of collagen induced by 34 ng/ml TGF-β1 | collagen production (effect in words) ([2]; 1 µM, 100 µM H2O2): tendency to stimulate collagen production | collagen production (effect in words) ([2]; 1 µM, standard conditions): tendency to inhibit collagen production | collagen production (effect in words) ([2]; 10 µM, 34 ng/ml TGF-β1): stimulates collagen production | collagen production (effect in words) ([2]; 10 µM, 100 µM H2O2): stimulates collagen production | collagen production (effect in words) ([2]; 10 µM, standard conditions): stimulates collagen production | concentrations above which the predominant effect is inhibition of mitochondrial dehydrogenase activity [3]: higher than 1 nM | mitochondrial dehydrogenase activity (effect in words) ([3]; 1 µM, 18 h): stimulation of mitochondrial dehydrogenase activity | Revitalizing agent [3, 6]: Yes | Revitalizing agent ([3]; Dose 10 µm): No | activity at 1 µM ([3]; 18 h): 107 ± 10.5% | activity at 10 µM ([3]; 18 h): 0.87 ± 0.74% | activity at 1 µM ([3]; 42 h): 63.9 ± 4.3% | activity at 10 µM ([3]; 42 h): 0.63 ± 8.46% | inhibitory power toward the mitochondrial dehydrogenase activity ([3]; skin fibroblast cells and/or keratinocytes): marked inhibitory power | IL-1β production (effect in words) (interleukin 1β (IL-1β); 1 µM, 34 ng/ml TGF-β1): antagonizes the production of IL-1β | IL-1β ng/(ml* No. of cells from photo) ± SD (interleukin 1β (IL-1β); 1 µM, 34 ng/ml TGF-β1): 98±10 ng/(ml* No. of cells from photo) | IL-1β production (effect in words) (interleukin 1β (IL-1β); 1 µM, 100 µM H2O2): antagonizes the production of IL-1β | IL-1β ng/(ml* No. of cells from photo) ± SD (interleukin 1β (IL-1β); 1 µM, 100 µM H2O2): 69±20 ng/(ml* No. of cells from photo) | IL-1β ng/(ml* No. of cells from photo) ± SD (interleukin 1β (IL-1β); 1 µM, Standard conditions): 96±101 ng/(ml* No. of cells from photo) | IL-1β production (effect in words) (interleukin 1β (IL-1β); 1 µM, standard conditions): inhibits the production of IL-1β | IL-1β production (effect in words) (interleukin 1β (IL-1β); 10 µM, 34 ng/ml TGF-β1): stimulates IL-1β production | IL-1β ng/(ml* No. of cells from photo) ± SD (interleukin 1β (IL-1β); 10 µM, 34 ng/ml TGF-β1): 1632±93 ng/(ml* No. of cells from photo) | IL-1β production (effect in words) (interleukin 1β (IL-1β); 10 µM, 100 µM H2O2): stimulates IL-1β production | IL-1β ng/(ml* No. of cells from photo) ± SD (interleukin 1β (IL-1β); 10 µM, 100 µM H2O2): 1735±469 ng/(ml* No. of cells from photo) | IL-1β ng/(ml* No. of cells from photo) ± SD (interleukin 1β (IL-1β); 10 µM, Standard conditions): 144±4 ng/(ml* No. of cells from photo) | IL-1β production (effect in words) (interleukin 1β (IL-1β); 10 µM, standard conditions): stimulates IL-1β production | IL-6 production (effect in words) (interleukin 6 (IL-6); 1 µM, 34 ng/ml TGF-β1): antagonizes the production of IL-6 | IL-6 ng/(ml* No. of cells from photo) ± SD (interleukin 6 (IL-6); 1 µM, 34 ng/ml TGF-β1): 510±43 ng/(ml* No. of cells from photo) | IL-6 production (effect in words) (interleukin 6 (IL-6); 1 µM, 100 µM H2O2): antagonizes the production of IL-6 | IL-6 ng/(ml* No. of cells from photo) ± SD (interleukin 6 (IL-6); 1 µM, 100 µM H2O2): 626±8 ng/(ml* No. of cells from photo) | IL-6 ng/(ml* No. of cells from photo) ± SD (interleukin 6 (IL-6); 1 µM, Standard conditions): 396±14 ng/(ml* No. of cells from photo) | IL-6 production (effect in words) (interleukin 6 (IL-6); 1 µM, standard conditions): inhibits the production of IL-6 | IL-6 production (effect in words) (interleukin 6 (IL-6); 10 µM, 34 ng/ml TGF-β1): stimulates IL-6 production | IL-6 ng/(ml* No. of cells from photo) ± SD (interleukin 6 (IL-6); 10 µM, 34 ng/ml TGF-β1): 4652±243 ng/(ml* No. of cells from photo) | IL-6 production (effect in words) (interleukin 6 (IL-6); 10 µM, 100 µM H2O2): stimulates IL-6 production | IL-6 ng/(ml* No. of cells from photo) ± SD (interleukin 6 (IL-6); 10 µM, 100 µM H2O2): 5844±328 ng/(ml* No. of cells from photo) | IL-6 ng/(ml* No. of cells from photo) ± SD (interleukin 6 (IL-6); 10 µM, Standard conditions): 572±14 ng/(ml* No. of cells from photo) | IL-6 production (effect in words) (interleukin 6 (IL-6); 10 µM, standard conditions): stimulates IL-6 production | Anti-fibrotic (prevention of scar formation, also from acne) (HDF cells [4]; [6]): Yes (↓collagen, ↓IL-6, ↓IL-1β) | Cytoprotective (antioxidant, anti-inflammatory and anti-ageing; useful also in the treatment of acne) (HDF cells [4]; [6]): Yes (↓IL-6, ↓IL-1β) | Cytotoxic (HDF cells [4]; [6]): No | Irritant (HDF cells [4]; [6]): No | Wound-healing (HDF cells [4]; [6]): Yes (↑prolif, ↓IL-1β) | Anti-fibrotic (prevention of scar formation, also from acne) (HDF cells [4]; Dose 10 µm): No | Cytoprotective (antioxidant, anti-inflammatory and anti-ageing; useful also in the treatment of acne) (HDF cells [4]; Dose 10 µm): No | Cytotoxic (HDF cells [4]; Dose 10 µm): Yes (cell death, ↓dehydrogenase) | Irritant (HDF cells [4]; Dose 10 µm): Yes (↑IL-6, ↑IL-1β) | Wound-healing (HDF cells [4]; Dose 10 µm): No | concentrations at which no toxic (cytotoxic and irritant) effects are shown (HDF cells [4]; exposure for 24 hours): less than or equal to 1 µM | % DPPH activity ([5]; 1 mM, 30 minutes): 115% | Anti-radical (skin protective) [5, 6]: No | Anti-radical (skin protective) ([5]; Dose 10 µm): No
